Experimental data reported in US8158661B2, “GSK-3 inhibitors” (Noscira, S.A., priority 2004, dated 2012).

What was measured:
[1] = biological target: T1, Bovine serum albumin (Fraction V) (Bos taurus, UniProt P02769); test: Binding to BSA (incubation, HPLC-UV/MS); format: in vitro ADME; settings: compound and BSA 1 mM each, 30 minutes at room temperature
T1 construct: Bovine serum albumin (Fraction V) (Sigma); purchased Sigma
Method: The compounds (working solution at 1 mM) were incubated during 30 minutes at room temperature with Glutathione (Sigma) and Bovine serum albumin (Fraction V) (Sigma) at equimolecular concentrations (1 mM). After this time the solution was filtrated and analysed by HPLC-UV/MS.
HPLC was performed with a symmetry C18 (2.1×150 mm, 3.5 μm) column using a Waters Alliance 2695 with a 2996 photodiode array and ZQ2000 mass spectrometer used for the analytical separation and for UV and mass determination. The gradient used for the elution was: […]
Flux: 0.25 mL/min; temp: 30° C.; Detection: 250 nm; Injection Volume: 10 μL

[2] = biological target: Recombinant human glycogen synthase kinase 3β (Homo sapiens, UniProt P49841); test: GSK-3β inhibition; format: biochemical; settings: recombinant human GSK-3β, GS-2 62.5 μM, ATP 12.5 μM, 30 min at 30° C.
Method: The GSK-3β activity was determined by incubation of a mixture of recombinant human GSK-3 enzyme, a phosphate source and GSK-3 substrate in the presence and in the absence of the corresponding test compound, and by measuring the GSK-3 activity of this mixture.
The final assay volume was 20 μl. After incubation for 30 minutes at 30° C., 15 μl aliquots were spotted onto P81 phosphocellulose papers. Filters were washed four times for at least 10 minutes each and counted with 1.5 ml of scintillation cocktail in a scintillation counter.

[3] = Brain permeation and pharmacokinetics after oral and intravenous administration; format: in vivo, C57/BL6 mice; settings: mice
Method: C57/BL6 mice (15-30 g) from Charles River laboratories Spain were used in this study. […] Water was available ad libitum. Animals were fasted for 4 hours before treatment, but with water ad libitum. They were fed 2 hours after administration.
The route of administration was a single oral administration at […] (10 mL/kg) and single intravenous administration at 2 mg/kg (10 mL/kg). An additional experiment was performed at 200 mg/kg by the oral route only to determine proportionality of absorption.
Blood was heparinized, and after centrifugation (3000 rpm, 10 mins, 5° C.), two plasma aliquots stored at −20° C. and −30° C. until analysis (HPLC/MS-MS).

Sequence of Recombinant human glycogen synthase kinase 3β (P49841 whole entry): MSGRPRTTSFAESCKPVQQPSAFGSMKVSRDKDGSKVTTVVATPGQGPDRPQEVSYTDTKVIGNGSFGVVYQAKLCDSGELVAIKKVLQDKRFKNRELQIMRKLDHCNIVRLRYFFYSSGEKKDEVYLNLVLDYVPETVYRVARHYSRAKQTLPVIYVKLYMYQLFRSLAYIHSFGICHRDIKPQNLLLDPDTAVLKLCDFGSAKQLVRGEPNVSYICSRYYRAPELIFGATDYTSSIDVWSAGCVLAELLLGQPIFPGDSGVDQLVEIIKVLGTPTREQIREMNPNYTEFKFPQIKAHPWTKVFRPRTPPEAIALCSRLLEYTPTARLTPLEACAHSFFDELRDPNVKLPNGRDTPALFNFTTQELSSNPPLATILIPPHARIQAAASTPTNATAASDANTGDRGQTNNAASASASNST
T1 sequence (P02769 25-607): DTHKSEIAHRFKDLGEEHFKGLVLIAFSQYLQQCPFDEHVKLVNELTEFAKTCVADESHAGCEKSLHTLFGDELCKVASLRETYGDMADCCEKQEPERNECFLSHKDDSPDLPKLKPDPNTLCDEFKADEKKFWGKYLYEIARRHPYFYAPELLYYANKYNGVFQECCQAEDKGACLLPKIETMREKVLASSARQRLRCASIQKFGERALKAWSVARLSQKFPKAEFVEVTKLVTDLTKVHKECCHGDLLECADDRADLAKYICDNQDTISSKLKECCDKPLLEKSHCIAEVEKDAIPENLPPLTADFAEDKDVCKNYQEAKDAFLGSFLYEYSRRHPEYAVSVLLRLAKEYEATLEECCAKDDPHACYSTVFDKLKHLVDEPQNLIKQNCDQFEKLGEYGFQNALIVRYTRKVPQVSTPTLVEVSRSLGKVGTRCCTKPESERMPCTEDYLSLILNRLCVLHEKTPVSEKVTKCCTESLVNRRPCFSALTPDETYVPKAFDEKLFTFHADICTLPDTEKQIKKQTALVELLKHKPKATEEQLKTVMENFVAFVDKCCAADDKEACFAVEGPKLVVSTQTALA

Structure (SMILES)	% unbinding compound, albumin [1]	IC50 [2]	melting point	also measured
Cc1cccc(C(C)(C)C)c1-n1sc(=O)n(Cc2ccccc2)c1=O [Compound 8, 4-Benzyl-2-(2-tert-butyl-6-methyl-phenyl)-(1,2,4)thiadiazolidine-3,5-dione]	62.3%	3 µM	89.8 °C	–
O=c1sn(C(c2ccccc2)c2ccccc2)c(=O)n1Cc1ccccc1 [Compound 6, 4-Benzyl-2-diphenylmethyl-1,2,4-thiadiazolidine-3,5-dione]	84.0%	2 µM	111.5 °C	–
O=c1sn(Cc2ccccc2)c(=O)n1Cc1ccccc1 [2,4-dibenzyl-1,2,4-thiadiazolidine-3,5-dione, reference compound]	57.0%	–	–	–
O=c1sn(CCc2ccccc2)c(=O)n1Cc1ccccc1 [Compound 1, 2-Phenethyl-4-benzyl-(1,2,4)thiadiazolidine-3,5-dione]	80.2%	3 µM	–	–
O=c1sn(-c2ccc(Oc3ccccc3)cc2)c(=O)n1Cc1ccccc1 [Compound 10, 4-Benzyl-2-(4-phenoxyphenyl)-[1,2,4]thiadiazolidine-3,5-dione]	98.9%	3 µM	88.8 °C	–
Cc1ccc(Cn2sc(=O)n(Cc3ccccc3)c2=O)cc1 [Compound 4, 4-Benzyl-2-(4-methyl-benzyl)-[1,2,4]thiadiazolidine-3,5-dione]	67.2%	1.8 µM	–	–

The next lines start with results.

% unbinding compound, albumin [1]	IC50 [2]	melting point	Structure (SMILES)	also measured
91.4%	8 µM	154.9 °C	O=c1sn(-c2ccccc2Cc2ccccc2)c(=O)n1Cc1ccccc1 [Compound 9, 4-Benzyl-2-(2-benzyl-phenyl)-[1,2,4]thiadiazolidine-3,5-dione]	–
65.5%	4.2 µM	–	O=c1sn(-c2ccc3c(c2)OCO3)c(=O)n1Cc1ccccc1 [Compound 5, 4-Benzyl 2-((3,4-methylenedioxy)phenyl)-[1,2,4]thiadiazolidine-3,5-dione]	–
54.0%	> 50 µM	128.8 °C	O=c1sn(C23CC4CC(CC(C4)C2)C3)c(=O)n1Cc1ccccc1 [Compound 3, 2-(1-adamantyl)-4-benzyl-[1,2,4]thiadiazolidine-3,5-dione]	–
68.3%	< 50 µM	–	COc1ccc(Cn2sc(=O)n(Cc3ccccc3)c2=O)cc1 [Compound 7, 4-Benzyl-2-(4-methoxybenzyl)-[1,2,4]thiadiazolidine-3,5-dione]	–
98.0%	–	–	O=c1sn(-c2cccc3ccccc23)c(=O)n1Cc1ccccc1 [Compound 2, 4-Benzyl-2-naphthalen-1-yl-[1,2,4]thiadiazolidine-3,5-dione]	bioavailability ([3]; both sexes, C57/BL6, mouse, plasma, oral 20 mg/kg vs intravenous 2 mg/kg): 31.9%; half-life ([3]; both sexes, C57/BL6, mouse, plasma, oral administration of 20 mg/kg): 6 h; Cmax ([3]; both sexes, C57/BL6, mouse, single oral dose 20 mg/kg, plasma): 905 ng/mL; Cmax ([3]; both sexes, C57/BL6, mouse, single oral dose 200 mg/kg, plasma): 9060 ng/mL; Absorption from the GI tract ([3]; after oral administration): quickly absorbed; Levels in the brain ([3]; both after oral and intravenous administration): detected in the brain
